The text below walks through data of paper PMC9186491, “Novel Small Molecule Tyrosine Kinase 2 Pseudokinase Ligands Block Cytokine-Induced TYK2-Mediated Signaling Pathways” (Frontiers in Immunology, 2022).

Several values for one entry are separate records, joined by “and”; a condition that tells them apart may be missing. Equal values may be shown once.

Data set [1] is described as follows: LM T1/2, Mk. In kind it is in vitro ADME. Conditions: monkey, liver microsomes. In general terms: Liver microsomes are vesicles of endoplasmic reticulum, rich in cytochrome P450 enzymes.
In data set [2] the test system is IFNα-induced CXCL10 production in human whole blood. Nature of the data set: IFNα-induced CXCL10 production in human whole blood. Conditions: human whole blood, IFNα 16 hours; read-out: TYK2-associated IFNα-induced-CXCL10 Production in Human Whole Blood: IC50. The format is cell-based. The procedure: Human whole blood [drawn with Ethylenediaminetetraacetic acid (EDTA) as anti-coagulant] was obtained from Zen-Bio Inc. (Durham, NC). […] The plasma was collected for detection of C-X-C motif chemokine 10 (CXCL10, IP10) secretion. CXCL10 was measured by Human CXCL10/IP-10 AlphaLISA Kit (PerkinElmer, #AL259 C/F) according to the manufacturer’s instructions.

The subject of data set [3] is IFNα-induced TYK2-mediated IRF activity in Jurkat-Dual T cells. Put plainly: Jurkat T cell reporter assay for IFNα-induced TYK2-mediated IRF activity. The format is cell-based. As to conditions: Homo sapiens, SEAP. From the text:
Jurkat-Dual™ T cells (In vivogen, jktd-isnf) were purchased from In vivogen (San Diego, CA). The cells feature the dual-reporter system, with a Lucia luciferase gene driven by an interferon-β (IFN-β) minimal promoter fused to the NFκB consensus transcriptional response element and the c-Rel binding site, as well as a secreted embryonic alkaline phosphatase (SEAP) reporter gene under the control of an IFN-stimulated gene 54 (ISG54) minimal promoter in conjunction with five IFN-stimulated response elements. With the dual-reporter design, Jurkat-Dual™ cells allow the simultaneous investigation of both the NFκB pathway, by monitoring the Lucia luciferase, and the interferon regulatory factor (IRF) pathway, by assessing the activity of SEAP. In this study, the Jurkat-Dual™ T cells were plated at a sterilized U-shaped 96-well plate in RPMI (Thermo Fisher) containing 10% heat-inactivated Fetal Bovine Serum (FBS) (Thermo Fisher) and 100 U/mL Penicillin-Streptomycin (Thermo Fisher) at a density of 2.0 × 10^6/mL. Seeded cells were treated with serially diluted compounds and stimulated with 80 ng/mL human recombinant IFNα (Biolegend, # 592702) overnight in a humidified, 5% CO2 cell culture incubator at 37°C. Activity of SEAP was then detected from the cell cultured supernatant according to the manufacturer’s instructions.
Background: Reporter assays use an easily measured gene product as a stand-in for the process of interest.

The nature of data set [4]: LM T1/2, H. The format is in vitro ADME. Conditions: human, liver microsomes.
Data set [5] in a line: GSH. The format is in vitro ADME.
The target of data set [6] is hERG (Homo sapiens, UniProt Q12809). Nature of the data set: hERG IC50. A general note: Block of hERG is tested as a sign of cardiac risk.
Data set [7] is described as follows: PPB, M. As to conditions: mouse, plasma. In kind it is in vitro ADME.
Data set [8] deals with T1, TYK2 JH2 pseudokinase domain (Homo sapiens, UniProt P29597).
T1 construct: purchased Eurofins DiscoverX Corporation (contract assay)
Nature of the data set: KdELECT competition binding assay, TYK2 JH2. As to conditions: isolated TYK2 JH2 domain. As to the method: The KdELECT competition assays were performed to test the binding affinity of compounds to the JH1 kinase region or JH2 pseudokinase region in TYK2 or JAK by ligand competition with JH1 or JH2 protein segments. The assay was carried out at Eurofins DiscoverX Corporation following the established standard protocol (DiscoverX, San Diego, CA). In this assay, compounds that bind to the kinase or pseudokinase protein regions prevent the protein binding to the immobilized ligand and reduce the amount of kinase matter captured on the solid surface. […] Dissociation constants (Kds) for test compound-kinase interactions are calculated by measuring the amount of kinase captured on the solid support as a function of the test compound concentration. […] The ligated beads were blocked with excess biotin and washed with blocking buffer to remove unbound ligand and to reduce nonspecific binding. […] All reactions were performed in polypropylene 384-well plates with a final volume of 20 μL. […] The beads were then re-suspended in the elution buffer and incubated at room temperature with shaking for 30 minutes. The kinase concentration in the eluant was measured by qPCR. Two replicates were performed and averaged to obtain the Kd measurement.

T1 sequence (P29597 589-875 limits assumed): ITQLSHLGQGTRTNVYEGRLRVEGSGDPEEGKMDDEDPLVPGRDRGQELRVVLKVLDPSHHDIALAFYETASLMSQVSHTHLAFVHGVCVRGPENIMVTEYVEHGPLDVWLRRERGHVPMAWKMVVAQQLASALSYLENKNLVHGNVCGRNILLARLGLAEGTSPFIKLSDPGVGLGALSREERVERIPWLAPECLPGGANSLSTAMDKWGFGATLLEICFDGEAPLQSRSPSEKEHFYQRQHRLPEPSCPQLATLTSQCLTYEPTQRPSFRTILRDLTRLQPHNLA
Sequence of hERG (Q12809 whole entry): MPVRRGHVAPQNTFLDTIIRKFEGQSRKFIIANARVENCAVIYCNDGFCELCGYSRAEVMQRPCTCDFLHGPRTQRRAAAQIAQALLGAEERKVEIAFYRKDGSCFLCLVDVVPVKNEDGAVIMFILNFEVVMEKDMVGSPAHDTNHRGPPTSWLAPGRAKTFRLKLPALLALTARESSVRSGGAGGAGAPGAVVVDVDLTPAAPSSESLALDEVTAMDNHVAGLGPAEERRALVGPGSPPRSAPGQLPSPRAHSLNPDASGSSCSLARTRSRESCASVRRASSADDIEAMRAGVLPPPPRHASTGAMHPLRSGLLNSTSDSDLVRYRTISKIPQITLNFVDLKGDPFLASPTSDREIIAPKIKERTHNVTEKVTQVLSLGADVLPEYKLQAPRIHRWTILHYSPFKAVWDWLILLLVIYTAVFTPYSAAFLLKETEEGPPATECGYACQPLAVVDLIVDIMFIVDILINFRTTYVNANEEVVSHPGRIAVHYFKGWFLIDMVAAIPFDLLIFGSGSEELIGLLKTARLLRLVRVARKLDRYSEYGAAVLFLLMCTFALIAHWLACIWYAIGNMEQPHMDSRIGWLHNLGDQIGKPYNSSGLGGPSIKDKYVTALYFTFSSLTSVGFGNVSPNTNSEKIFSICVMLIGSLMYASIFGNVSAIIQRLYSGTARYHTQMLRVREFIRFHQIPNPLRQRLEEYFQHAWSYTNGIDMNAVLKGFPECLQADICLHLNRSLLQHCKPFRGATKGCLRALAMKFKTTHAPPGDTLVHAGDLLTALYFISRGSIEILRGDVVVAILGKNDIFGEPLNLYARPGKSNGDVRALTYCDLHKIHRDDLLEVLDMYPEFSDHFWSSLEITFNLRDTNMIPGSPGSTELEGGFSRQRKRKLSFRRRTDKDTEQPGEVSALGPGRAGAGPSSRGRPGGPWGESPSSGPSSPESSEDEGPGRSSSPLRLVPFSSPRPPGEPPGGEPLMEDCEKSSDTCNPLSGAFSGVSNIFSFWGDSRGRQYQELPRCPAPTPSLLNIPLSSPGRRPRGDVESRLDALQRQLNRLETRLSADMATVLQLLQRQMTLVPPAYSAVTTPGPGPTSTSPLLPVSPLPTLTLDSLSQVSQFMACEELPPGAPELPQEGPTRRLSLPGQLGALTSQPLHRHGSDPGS

As a reminder, the half-life is the time in which the quantity being followed falls by half. Lower therefore signals fast loss. One may read the IC50 as the concentration that gives 50% inhibition. In general, fraction unbound refers to the share of the substance not bound to proteins or other matrix. High values mean much free substance, low ones little free substance. The term Kd denotes the constant that tells how readily two partners part at equilibrium. As to `[2H]C([2H])([2H])NC(=O)c1nnc(NC(=O)N2CCC2)cc1Nc1cccc(-c2ncn(C)n2)c1OC` [SHR9332], the half-life in data set [1] came to 30.9 min; in data set [4], 47.5 min. For the same compound, the IC50 in data set [2] was 480 nM; in data set [3], 55 nM; in data set [6] it was over 30000 nM. Moreover, in data set [5], the GSH entry is on record as “negative”. Also, in data set [7], the fraction unbound was found to be 0.249. Further, the Kd in data set [8] came out at 0.04 nM.

Turning to `CNC(=O)c1nnc(NC(=O)C2CC2)c2[nH]c(-c3ccc(N)cc3OC)cc12` [SHR2396], the half-life in data set [1] is 50 min; in data set [4], over 139 min. Moreover, the 50% inhibitory concentration (IC50) in data set [3] came out at 9.7 nM. For the same compound, the GSH entry in data set [5] is reported as “negative”. In data set [7], the fraction unbound turned out to be 0.0292. Also, the Kd in data set [8] was 0.029 nM and 0.019 nM.

On to `CNC(=O)c1nnc(NC(=O)N2CCC2)cc1Nc1cccc(-c2ncn(C)n2)c1OC` [SHR8751], for which the half-life in data set [1] is over 99 min; in data set [4] it was over 139 min. For the same compound, the IC50 in data set [2] is 460 nM; in data set [3], 48 nM; in data set [6], over 30000 nM. For the same compound, the GSH result in data set [5] is given as “negative”. For the same compound, the fraction unbound in data set [7] turned out to be 0.35. Besides, in data set [8], the dissociation constant (Kd) amounted to 0.032 nM.
